Results: patent US12692261B2, “Substituted heterocyclic compounds and therapeutic uses thereof” (Bayer Aktiengesellschaft, priority 2020, dated 2026)

Experiments:
[1] = biological target: T1, full-length human CSNK1A1 (Homo sapiens, UniProt P48729); test: CSNK1A1 Assay 2 (ADP-Glo, 1 μM ATP, substrate biotin-Ahx-KRRRAL-pS-VASLPGL); assay type: biochemical; conditions: Table 3, read-out: CSNK1A1 Assay 2 IC50 [mol/l] (median)
T1 construct: N-terminal Glutathion-S-Transferase (GST) and full-length human CSNK1A1; purchased Life Technologies PV4174; host or cells: baculovirus infected insect cells
How it was run: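 Activity read as ADP generated (ADP-Glo luciferase luminescence, 1 h detection steps at 22 °C). Enzyme was insect-cell-expressed GST–full-length human CSNK1A1, compound-preincubated 15 min before reaction with phosphopeptide substrate and 1 μM ATP in 50 mM HEPES pH 7.5, 10 mM MgCl2.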

full-length human CSNK1D = biological target: T2, full-length human CSNK1D (Homo sapiens, UniProt P48730); test: CSNK1D Assay (ADP-Glo, 1 μM ATP); assay type: biochemical; conditions: Table 3, read-out: CSNK1D IC50 [mol/l] (median)
T2 construct: N-terminal Glutathion-S-Transferase (GST) and full-length human CSNK1D; purchased Life Technologies PV3665; host or cells: baculovirus infected insect cells
How it was run: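 ADP-Glo luminescence reports ADP generated by GST-fused full-length human CSNK1D (insect-cell expressed, about 0.5 ng/μL) acting on a biotinylated peptide at 1 μM ATP. Test compounds were pre-bound to enzyme 15 min at 22° C in 50 mM HEPES pH 7.5.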

T1 sequence (P48729 whole entry): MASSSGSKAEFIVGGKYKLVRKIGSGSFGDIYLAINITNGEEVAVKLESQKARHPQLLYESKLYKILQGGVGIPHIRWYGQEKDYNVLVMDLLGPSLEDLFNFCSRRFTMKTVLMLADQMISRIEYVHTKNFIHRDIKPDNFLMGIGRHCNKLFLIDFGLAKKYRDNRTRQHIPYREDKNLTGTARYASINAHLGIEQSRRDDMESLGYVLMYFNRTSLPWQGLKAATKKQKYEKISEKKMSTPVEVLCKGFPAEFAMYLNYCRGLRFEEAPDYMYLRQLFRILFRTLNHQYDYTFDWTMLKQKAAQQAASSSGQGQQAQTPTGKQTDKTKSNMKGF
T2 sequence (P48730 whole entry): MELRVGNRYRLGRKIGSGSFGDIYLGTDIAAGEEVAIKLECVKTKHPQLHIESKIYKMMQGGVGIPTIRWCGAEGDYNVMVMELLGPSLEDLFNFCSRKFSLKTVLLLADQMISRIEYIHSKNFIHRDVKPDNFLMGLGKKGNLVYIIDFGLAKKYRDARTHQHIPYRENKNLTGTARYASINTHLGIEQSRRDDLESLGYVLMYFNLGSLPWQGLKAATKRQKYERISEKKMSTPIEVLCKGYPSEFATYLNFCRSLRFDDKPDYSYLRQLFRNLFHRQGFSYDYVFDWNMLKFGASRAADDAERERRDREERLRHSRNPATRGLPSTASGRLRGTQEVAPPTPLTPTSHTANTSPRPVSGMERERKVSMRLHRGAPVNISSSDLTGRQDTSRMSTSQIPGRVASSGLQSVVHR

| SMILES | IC50 [1] [nM] | IC50 (full-length human CSNK1D) [nM] |
| --- | --- | --- |
| O=C(Nc1cc(-c2[nH]c3c(O[C@H]4CCOC4)cc(F)nc3c2-c2ccccn2)ccn1)C(CC(F)F)c1ccc(F)cc1 (mixture of isomers) [Example 53, (2RS)-4,4-difluoro-N-{4-[5-fluoro-7-{[(3S)-oxolan-3-yl]oxy}-3-(pyridin-2-yl)-1H-pyrrolo[3,2-b]pyridin-2-yl]pyridin-2-yl}-2-(4-fluorophenyl)butanamide] | 6 | 7.31 |
| O=C(Nc1cc(-c2[nH]c3c(OC[C@@H]4COCCO4)cc(F)nc3c2-c2ccccn2)ccn1)C(CC(F)F)c1ccc(F)cc1 (mixture of isomers) [Example 57, (2RS)—N-(4-{7-[(2S)-1,4-dioxan-2-ylmethoxy]-5-fluoro-3-(pyridin-2-yl)-1H-pyrrolo[3,2-b]pyridin-2-yl}pyridin-2-yl)-4,4-difluoro-2-(4-fluorophenyl)butanamide] | 7.89 | 6.33 |
| O=C(Nc1cc(-c2[nH]c3c(O[C@H]4CCOC4)ncnc3c2-c2ccccn2)ccn1)C(CC(F)F)c1ccc(F)cc1 (mixture of isomers) [Example 72, (2RS)-4,4-difluoro-2-(4-fluorophenyl)-N-{4-[4-{[(3S)-oxolan-3-yl]oxy}-7-(pyridin-2-yl)-5H-pyrrolo[3,2-d]pyrimidin-6-yl]pyridin-2-yl}butanamide] | 7.1 | 7.3 |
| O=C(Nc1cc(-c2[nH]c3ccc(F)nc3c2-c2ccccn2)ccn1)C(CC(F)F)c1ccc(F)cc1 (racemic) [Example 1, 4,4-difluoro-2-(4-fluorophenyl)-N-{4-[5-fluoro-3-(pyridin-2-yl)-1H-pyrrolo[3,2-b]pyridin-2-yl]pyridin-2-yl}butanamide] | 10.1 | 15.7 |
| CN1CCN(c2cc(F)nc3c(-c4ccccn4)c(-c4ccnc(NC(=O)C(CC(F)F)c5ccc(F)cc5)c4)[nH]c23)CC1 (racemic) [Example 56, (2RS)-4,4-difluoro-N-{4-[5-fluoro-7-(4-methylpiperazin-1-yl)-3-(pyridin-2-yl)-1H-pyrrolo[3,2-b]pyridin-2-yl]pyridin-2-yl}-2-(4-fluorophenyl)butanamide] | 3.19 | 6.67 |
| O=C(Nc1cc(-c2[nH]c3nc(F)cnc3c2-c2ccccn2)ccn1)C(CC(F)F)c1ccc(F)cc1 (racemic) [Example 60, (2RS)-4,4-difluoro-2-(4-fluorophenyl)-N-{4-[3-fluoro-7-(pyridin-2-yl)-5H-pyrrolo[2,3-b]pyrazin-6-yl]pyridin-2-yl}butanamide] | 5.81 | 12.5 |
| O=C(Nc1cc(-c2[nH]c3c(OCC4CCCO4)cc(F)nc3c2-c2ccccn2)ccn1)C(CC(F)F)c1ccc(F)cc1 (racemic) [Example 61, (2RS)-4,4-difluoro-N-{4-[5-fluoro-7-{[(2RS)-oxolan-2-yl]methoxy}-3-(pyridin-2-yl)-1H-pyrrolo[3,2-b]pyridin-2-yl]pyridin-2-yl}-2-(4-fluorophenyl)butanamide] | 11.1 | 8.79 |
| O=C(Nc1cc(-c2[nH]c3ncc(F)nc3c2-c2ccccn2)ccn1)C(CC(F)F)c1ccc(F)cc1 (racemic) [Example 62, (2RS)-4,4-difluoro-2-(4-fluorophenyl)-N-{4-[2-fluoro-7-(pyridin-2-yl)-5H-pyrrolo[2,3-b]pyrazin-6-yl]pyridin-2-yl}butanamide] | 3.92 | 8.9 |
| O=C(Nc1cc(-c2[nH]c3ccnnc3c2-c2ccccn2)ccn1)C(CC(F)F)c1ccc(F)cc1 (racemic) [Example 65, (2RS)-4,4-difluoro-2-(4-fluorophenyl)-N-{4-[7-(pyridin-2-yl)-5H-pyrrolo[3,2-c]pyridazin-6-yl]pyridin-2-yl}butanamide] | 2.75 | 5.62 |
| O=C(Nc1cc(-c2[nH]c3cc(Cl)nnc3c2-c2ccccn2)ccn1)C(CC(F)F)c1ccc(F)cc1 (racemic) [Example 68, (2RS)—N-{4-[3-chloro-7-(pyridin-2-yl)-5H-pyrrolo[3,2-c]pyridazin-6-yl]pyridin-2-yl}-4,4-difluoro-2-(4-fluorophenyl)butanamide] | 6.93 | 14.4 |
| O=C(Nc1cc(-c2[nH]c3c(N4CCOCC4)cc(F)nc3c2-c2ccccn2)ccn1)C(CC(F)F)c1ccc(F)cc1 (racemic) [Example 69, (2RS)-4,4-difluoro-N-{4-[5-fluoro-7-(morpholin-4-yl)-3-(pyridin-2-yl)-1H-pyrrolo[3,2-b]pyridin-2-yl]pyridin-2-yl}-2-(4-fluorophenyl)butanamide] | 10.4 | 9.76 |
| O=C(Nc1cc(-c2[nH]c3ccc(Cl)nc3c2-c2ccccn2)ccn1)C(CC(F)F)c1ccc(F)cc1 (racemic) [Example 70, (2RS)—N-{4-[5-chloro-3-(pyridin-2-yl)-1H-pyrrolo[3,2-b]pyridin-2-yl]pyridin-2-yl}-4,4-difluoro-2-(4-fluorophenyl)butanamide] | 5.43 | 9.21 |
| O=C(Nc1cc(-c2[nH]c3cc(F)cnc3c2-c2ccccn2)ccn1)C(CO)c1ccc(F)cc1 (racemic) [Example 71, (2RS)—N-(4-(6-fluoro-3-(pyridin-2-yl)-1H-pyrrolo[3,2-b]pyridin-2-yl)pyridin-2-yl)-2-(4-fluorophenyl)-3-hydroxypropanamide] | 8.21 | 12.8 |
| O=C(Nc1cc(-c2[nH]c3c(OCC(F)F)ncnc3c2-c2ccccn2)ccn1)C(CC(F)F)c1ccc(F)cc1 (racemic) [Example 78, (2RS)—N-{4-[4-(2,2-difluoroethoxy)-7-(pyridin-2-yl)-5H-pyrrolo[3,2-d]pyrimidin-6-yl]pyridin-2-yl}-4,4-difluoro-2-(4-fluorophenyl)butanamide] | 5.16 | 5.15 |
| O=C(Nc1cc(-c2[nH]c3c(N4CCNCC4)ccnc3c2-c2ccccn2)ccn1)C(CC(F)F)c1ccc(F)cc1 (racemic) [Example 92, (2RS)-4,4-difluoro-2-(4-fluorophenyl)-N-{4-[7-(piperazin-1-yl)-3-(pyridin-2-yl)-1H-pyrrolo[3,2-b]pyridin-2-yl]pyridin-2-yl}butanamide] | 2.35 | 6.27 |
| O=C(Nc1cc(-c2[nH]c3ccc(F)nc3c2-c2ccccn2)ccn1)[C@@H](CC(F)F)c1ccc(F)cc1 (single isomer, unassigned) [Example 2] | 1.36 | 2.63 |
| O=C(Nc1cc(-c2[nH]c3c(OC[C@H]4COCCO4)cc(F)nc3c2-c2ccccn2)ccn1)C(CC(F)F)c1ccc(F)cc1 (single isomer, unassigned) [Example 51, (2R or S)—N-{4-[7-{[(2R)-1,4-dioxan-2-yl]methoxy}-5-fluoro-3-(pyridin-2-yl)-1H-pyrrolo[3,2-b]pyridin-2-yl]pyridin-2-yl}-4,4-difluoro-2-(4-fluorophenyl)butanamide] | 4.65 | 4.1 |
| O=C(Nc1cc(-c2[nH]c3c(OC[C@H]4COCCO4)cc(F)nc3c2-c2ccccn2)ccn1)C(CC(F)F)c1ccc(F)cc1 (single isomer, unassigned) [Example 52, (2R or S)—N-{4-[7-{[(2R)-1,4-dioxan-2-yl]methoxy}-5-fluoro-3-(pyridin-2-yl)-1H-pyrrolo[3,2-b]pyridin-2-yl]pyridin-2-yl}-4,4-difluoro-2-(4-fluorophenyl)butanamide] | 17.2 | 23.4 |
| O=C(Nc1cc(-c2[nH]c3c(O[C@H]4CCOC4)cc(F)nc3c2-c2ccccn2)ccn1)C(CC(F)F)c1ccc(F)cc1 (single isomer, unassigned) [Example 54, (2R or S)-4,4-difluoro-N-{4-[5-fluoro-7-{[(3S)-oxolan-3-yl]oxy}-3-(pyridin-2-yl)-1H-pyrrolo[3,2-b]pyridin-2-yl]pyridin-2-yl}-2-(4-fluorophenyl)butanamide] | 4.22 | 3.7 |
| O=C(Nc1cc(-c2[nH]c3c(O[C@H]4CCOC4)cc(F)nc3c2-c2ccccn2)ccn1)C(CC(F)F)c1ccc(F)cc1 (single isomer, unassigned) [Example 55, (2R or S)-4,4-difluoro-N-{4-[5-fluoro-7-{[(3S)-oxolan-3-yl]oxy}-3-(pyridin-2-yl)-1H-pyrrolo[3,2-b]pyridin-2-yl]pyridin-2-yl}-2-(4-fluorophenyl)butanamide] | 18.3 | 24.9 |
| O=C(Nc1cc(-c2[nH]c3c(OC[C@@H]4COCCO4)cc(F)nc3c2-c2ccccn2)ccn1)C(CC(F)F)c1ccc(F)cc1 (single isomer, unassigned) [Example 58, (2R or S)—N-{4-[7-{[(2S)-1,4-dioxan-2-yl]methoxy}-5-fluoro-3-(pyridin-2-yl)-1H-pyrrolo[3,2-b]pyridin-2-yl]pyridin-2-yl}-4,4-difluoro-2-(4-fluorophenyl)butanamide] | 3.56 | 3.03 |
| O=C(Nc1cc(-c2[nH]c3c(OC[C@@H]4COCCO4)cc(F)nc3c2-c2ccccn2)ccn1)C(CC(F)F)c1ccc(F)cc1 (single isomer, unassigned) [Example 59, (2R or S)—N-{4-[7-{[(2S)-1,4-dioxan-2-yl]methoxy}-5-fluoro-3-(pyridin-2-yl)-1H-pyrrolo[3,2-b]pyridin-2-yl]pyridin-2-yl}-4,4-difluoro-2-(4-fluorophenyl)butanamide] | 12.7 | 19.6 |
| O=C(Nc1cc(-c2[nH]c3ncc(F)nc3c2-c2ccccn2)ccn1)C(CC(F)F)c1ccc(F)cc1 (single isomer, unassigned) [Example 63, (2R or S)-4,4-difluoro-2-(4-fluorophenyl)-N-{4-[2-fluoro-7-(pyridin-2-yl)-5H-pyrrolo[2,3-b]pyrazin-6-yl]pyridin-2-yl}butanamide] | 1.48 | 3.77 |
